Experimental data taken from patent publication US20060123501A1, “Method for treating inflammatory disorders” (priority 2004, published 2006).

Test system: cIAP2−/− and cIAP2+/+ mice
Test: Serum cytokine levels (ELISA) after i.p. LPS
Assay type: in vivo, mouse
Description: LPS directly activates macrophages to produce large amounts of IL-1β and TNF-α and to mediate a cascade of events leading to endotoxic shock. We therefore assayed the levels of these pro-inflammatory cytokines in serum from cIAP2^−/− mice treated with LPS (35 mg LPS/kg). In cIAP2^−/− mice, IL-1β serum levels peaked at 4 h and then markedly dropped off (Table 4). This was in contrast to littermate controls where IL-1β levels decreased much later. […] As a further study, we also investigated the serum concentrations of IL-12 (Table 4) after an injection of LPS (35 mg/kg), yet again, we observed an attenuation of a macrophage cytokine, IL-12, by the 6 hour time point. Nevertheless, cIAP2^−/− mice did display early outward signs of sepsis, such as eye exudates and ruffled fur; however, their condition quickly ameliorated, corresponding to the observed waning of the LPS-induced inflammatory cytokines seen within the cIAP2^−/− mice.
Adult 4-6 week old mice (n=3), cIAP2^−/− and littermate control mice, were injected i.p. with a LD100 dose of LPS (35 mg LPS/kg). At the appropriate times mice were anesthetized with phenobarbital and killed by cervical dislocation. The plasma was then collected from these animals and used to determine serum concentrations of IL-1β, TNF-α and IL-12 via an ELISA kit (R & D Systems).

[1] = cIAP2+/+ mice, 2 hours after i.p. LPS 35 mg/kg
[2] = cIAP2+/+ mice, 6 hours after i.p. LPS 35 mg/kg
[3] = cIAP2+/+ mice, 10 hours after i.p. LPS 35 mg/kg
[4] = cIAP2−/− mice, 2 hours after i.p. LPS 35 mg/kg
[5] = cIAP2−/− mice, 6 hours after i.p. LPS 35 mg/kg
[6] = cIAP2−/− mice, 10 hours after i.p. LPS 35 mg/kg

## lipopolysaccharide [LPS]
[1]
  IL-1β Serum Levels: 476 ± 24 pg/mL
  IL-12 Serum Leves: 210 ± 17 pg/mL
  TNFα Serum Levels: 1623 ± 348 pg/mL
[2]
  IL-1β Serum Levels: 993 ± 158 pg/mL
  IL-12 Serum Leves: 260 ± 31 pg/mL
  TNFα Serum Levels: 502 ± 56 pg/mL
[3]
  IL-1β Serum Levels: 669 ± 48 pg/mL
  TNFα Serum Levels: 371 ± 64 pg/mL
[4]
  IL-1β Serum Levels: 314 ± 153 pg/mL
  IL-12 Serum Leves: 152 ± 24 pg/mL
  TNFα Serum Levels: 1589 ± 413 pg/mL
[5]
  IL-1β Serum Levels: 476 ± 78 pg/mL
  IL-12 Serum Leves: 11 ± 5 pg/mL
  TNFα Serum Levels: 202 ± 89 pg/mL
[6]
  IL-1β Serum Levels: 162 ± 21 pg/mL
  TNFα Serum Levels: 8 ± 7 pg/mL
cIAP2−/− mice, LPS 35 mg/kg
  Time of peak IL-1β serum levels: 4 h
cIAP2−/− mice, by 10 hours, LPS 35 mg/kg
  TNF-α serum levels: approximately 10 pg/ml
Littermate controls, LPS 35 mg/kg
  TNF-α serum levels (stabilized, maintained until death): approximately 400 pg/ml
